Source: patent US20250255882A1, “TREATMENT OF CARDIAC CONDITION RELATED COGNITIVE DYSFUNCTION” (The Trustees of Columbia University in the City of New York, priority 2024, published 2025)

How the values were obtained:
[1] = system: HIV-1-associated neurocognitive disorders; conditions: rat model; cited from earlier work
[2] = system: germinal matrix hemorrhage; conditions: cited from earlier work
hippocampal RyR2 = biological target: T1, hippocampal RyR2 (Mus musculus, UniProt E9Q401); assay: single-channel recordings of RyR2 incorporated in planar lipid bilayers; type: in vivo; conditions: hippocampal RyR2 from treated MI mice; for RyR2 mean closed time / RyR2 mean open time: versus untreated MI
T1 construct: Hippocampal RyR2 was immunoprecipitated and immunoblotted to detect PTMs; from tissue; host or cells: mouse hippocampus (SHAM / MI mice, treated in vivo)
Protocol: (§1) FIG. 3E are graphs of RyR2 Po, To and Tc in the same groups as FIG. 3D. FIG. 3F is a graph of Ca^2+ leak measured in microsomes from mouse hippocampi of the same groups as FIG. 3D. […] Individual values are shown with the mean±s.e.m. […] Data are derived from biologically independent samples. All statistical tests were two sided.
(§2) PTMs and functional abnormalities of neuronal RyR2 in HF hippocampal samples from MI mice were then evaluated and compared them to SHAM. Hippocampal RyR2 was immunoprecipitated and immunoblotted to detect PTMs.

[3] = system: Ca2+-dependent enzymes, Tau and amyloid beta pathway; assay: Alzheimer's disease-like signaling in hippocampal samples; type: in vivo, mouse; conditions: hippocampi of treated MI mice
Description: Abnormal Ca^2+ regulation can contribute to the activation of Ca^2+-dependent enzymes such as AMP-activated protein kinase (AMPK), cyclin-dependent kinase 5 (CDK5) and enhanced calpain activity. Activation of these enzymes in response to elevated cytosolic Ca^2+ levels are upstream signals of both pTau and amyloid deposits in Alzheimer's disease brains and could be a major factor in the CD observed in HF. […] We also observed an increase in p25 expression, the neurotoxic activator of CDK5, which plays an important role in amyloid precursor protein processing in AD.

RyR2 [4] = biological target: T2, RyR2 (Mus musculus, UniProt E9Q401); assay: ER Ca2+ leak measured in microsomes from mouse hippocampi; type: in vivo; parameters: Hippocampal RyR2 was immunoprecipitated and immunoblotted to detect PTMs; from tissue; host or cells: mouse hippocampus (SHAM / MI mice, treated in vivo); conditions: hippocampal microsomes from treated MI mice, versus untreated MI
Protocol: as §1, §2
Target sequence in this assay (E9Q401 whole entry): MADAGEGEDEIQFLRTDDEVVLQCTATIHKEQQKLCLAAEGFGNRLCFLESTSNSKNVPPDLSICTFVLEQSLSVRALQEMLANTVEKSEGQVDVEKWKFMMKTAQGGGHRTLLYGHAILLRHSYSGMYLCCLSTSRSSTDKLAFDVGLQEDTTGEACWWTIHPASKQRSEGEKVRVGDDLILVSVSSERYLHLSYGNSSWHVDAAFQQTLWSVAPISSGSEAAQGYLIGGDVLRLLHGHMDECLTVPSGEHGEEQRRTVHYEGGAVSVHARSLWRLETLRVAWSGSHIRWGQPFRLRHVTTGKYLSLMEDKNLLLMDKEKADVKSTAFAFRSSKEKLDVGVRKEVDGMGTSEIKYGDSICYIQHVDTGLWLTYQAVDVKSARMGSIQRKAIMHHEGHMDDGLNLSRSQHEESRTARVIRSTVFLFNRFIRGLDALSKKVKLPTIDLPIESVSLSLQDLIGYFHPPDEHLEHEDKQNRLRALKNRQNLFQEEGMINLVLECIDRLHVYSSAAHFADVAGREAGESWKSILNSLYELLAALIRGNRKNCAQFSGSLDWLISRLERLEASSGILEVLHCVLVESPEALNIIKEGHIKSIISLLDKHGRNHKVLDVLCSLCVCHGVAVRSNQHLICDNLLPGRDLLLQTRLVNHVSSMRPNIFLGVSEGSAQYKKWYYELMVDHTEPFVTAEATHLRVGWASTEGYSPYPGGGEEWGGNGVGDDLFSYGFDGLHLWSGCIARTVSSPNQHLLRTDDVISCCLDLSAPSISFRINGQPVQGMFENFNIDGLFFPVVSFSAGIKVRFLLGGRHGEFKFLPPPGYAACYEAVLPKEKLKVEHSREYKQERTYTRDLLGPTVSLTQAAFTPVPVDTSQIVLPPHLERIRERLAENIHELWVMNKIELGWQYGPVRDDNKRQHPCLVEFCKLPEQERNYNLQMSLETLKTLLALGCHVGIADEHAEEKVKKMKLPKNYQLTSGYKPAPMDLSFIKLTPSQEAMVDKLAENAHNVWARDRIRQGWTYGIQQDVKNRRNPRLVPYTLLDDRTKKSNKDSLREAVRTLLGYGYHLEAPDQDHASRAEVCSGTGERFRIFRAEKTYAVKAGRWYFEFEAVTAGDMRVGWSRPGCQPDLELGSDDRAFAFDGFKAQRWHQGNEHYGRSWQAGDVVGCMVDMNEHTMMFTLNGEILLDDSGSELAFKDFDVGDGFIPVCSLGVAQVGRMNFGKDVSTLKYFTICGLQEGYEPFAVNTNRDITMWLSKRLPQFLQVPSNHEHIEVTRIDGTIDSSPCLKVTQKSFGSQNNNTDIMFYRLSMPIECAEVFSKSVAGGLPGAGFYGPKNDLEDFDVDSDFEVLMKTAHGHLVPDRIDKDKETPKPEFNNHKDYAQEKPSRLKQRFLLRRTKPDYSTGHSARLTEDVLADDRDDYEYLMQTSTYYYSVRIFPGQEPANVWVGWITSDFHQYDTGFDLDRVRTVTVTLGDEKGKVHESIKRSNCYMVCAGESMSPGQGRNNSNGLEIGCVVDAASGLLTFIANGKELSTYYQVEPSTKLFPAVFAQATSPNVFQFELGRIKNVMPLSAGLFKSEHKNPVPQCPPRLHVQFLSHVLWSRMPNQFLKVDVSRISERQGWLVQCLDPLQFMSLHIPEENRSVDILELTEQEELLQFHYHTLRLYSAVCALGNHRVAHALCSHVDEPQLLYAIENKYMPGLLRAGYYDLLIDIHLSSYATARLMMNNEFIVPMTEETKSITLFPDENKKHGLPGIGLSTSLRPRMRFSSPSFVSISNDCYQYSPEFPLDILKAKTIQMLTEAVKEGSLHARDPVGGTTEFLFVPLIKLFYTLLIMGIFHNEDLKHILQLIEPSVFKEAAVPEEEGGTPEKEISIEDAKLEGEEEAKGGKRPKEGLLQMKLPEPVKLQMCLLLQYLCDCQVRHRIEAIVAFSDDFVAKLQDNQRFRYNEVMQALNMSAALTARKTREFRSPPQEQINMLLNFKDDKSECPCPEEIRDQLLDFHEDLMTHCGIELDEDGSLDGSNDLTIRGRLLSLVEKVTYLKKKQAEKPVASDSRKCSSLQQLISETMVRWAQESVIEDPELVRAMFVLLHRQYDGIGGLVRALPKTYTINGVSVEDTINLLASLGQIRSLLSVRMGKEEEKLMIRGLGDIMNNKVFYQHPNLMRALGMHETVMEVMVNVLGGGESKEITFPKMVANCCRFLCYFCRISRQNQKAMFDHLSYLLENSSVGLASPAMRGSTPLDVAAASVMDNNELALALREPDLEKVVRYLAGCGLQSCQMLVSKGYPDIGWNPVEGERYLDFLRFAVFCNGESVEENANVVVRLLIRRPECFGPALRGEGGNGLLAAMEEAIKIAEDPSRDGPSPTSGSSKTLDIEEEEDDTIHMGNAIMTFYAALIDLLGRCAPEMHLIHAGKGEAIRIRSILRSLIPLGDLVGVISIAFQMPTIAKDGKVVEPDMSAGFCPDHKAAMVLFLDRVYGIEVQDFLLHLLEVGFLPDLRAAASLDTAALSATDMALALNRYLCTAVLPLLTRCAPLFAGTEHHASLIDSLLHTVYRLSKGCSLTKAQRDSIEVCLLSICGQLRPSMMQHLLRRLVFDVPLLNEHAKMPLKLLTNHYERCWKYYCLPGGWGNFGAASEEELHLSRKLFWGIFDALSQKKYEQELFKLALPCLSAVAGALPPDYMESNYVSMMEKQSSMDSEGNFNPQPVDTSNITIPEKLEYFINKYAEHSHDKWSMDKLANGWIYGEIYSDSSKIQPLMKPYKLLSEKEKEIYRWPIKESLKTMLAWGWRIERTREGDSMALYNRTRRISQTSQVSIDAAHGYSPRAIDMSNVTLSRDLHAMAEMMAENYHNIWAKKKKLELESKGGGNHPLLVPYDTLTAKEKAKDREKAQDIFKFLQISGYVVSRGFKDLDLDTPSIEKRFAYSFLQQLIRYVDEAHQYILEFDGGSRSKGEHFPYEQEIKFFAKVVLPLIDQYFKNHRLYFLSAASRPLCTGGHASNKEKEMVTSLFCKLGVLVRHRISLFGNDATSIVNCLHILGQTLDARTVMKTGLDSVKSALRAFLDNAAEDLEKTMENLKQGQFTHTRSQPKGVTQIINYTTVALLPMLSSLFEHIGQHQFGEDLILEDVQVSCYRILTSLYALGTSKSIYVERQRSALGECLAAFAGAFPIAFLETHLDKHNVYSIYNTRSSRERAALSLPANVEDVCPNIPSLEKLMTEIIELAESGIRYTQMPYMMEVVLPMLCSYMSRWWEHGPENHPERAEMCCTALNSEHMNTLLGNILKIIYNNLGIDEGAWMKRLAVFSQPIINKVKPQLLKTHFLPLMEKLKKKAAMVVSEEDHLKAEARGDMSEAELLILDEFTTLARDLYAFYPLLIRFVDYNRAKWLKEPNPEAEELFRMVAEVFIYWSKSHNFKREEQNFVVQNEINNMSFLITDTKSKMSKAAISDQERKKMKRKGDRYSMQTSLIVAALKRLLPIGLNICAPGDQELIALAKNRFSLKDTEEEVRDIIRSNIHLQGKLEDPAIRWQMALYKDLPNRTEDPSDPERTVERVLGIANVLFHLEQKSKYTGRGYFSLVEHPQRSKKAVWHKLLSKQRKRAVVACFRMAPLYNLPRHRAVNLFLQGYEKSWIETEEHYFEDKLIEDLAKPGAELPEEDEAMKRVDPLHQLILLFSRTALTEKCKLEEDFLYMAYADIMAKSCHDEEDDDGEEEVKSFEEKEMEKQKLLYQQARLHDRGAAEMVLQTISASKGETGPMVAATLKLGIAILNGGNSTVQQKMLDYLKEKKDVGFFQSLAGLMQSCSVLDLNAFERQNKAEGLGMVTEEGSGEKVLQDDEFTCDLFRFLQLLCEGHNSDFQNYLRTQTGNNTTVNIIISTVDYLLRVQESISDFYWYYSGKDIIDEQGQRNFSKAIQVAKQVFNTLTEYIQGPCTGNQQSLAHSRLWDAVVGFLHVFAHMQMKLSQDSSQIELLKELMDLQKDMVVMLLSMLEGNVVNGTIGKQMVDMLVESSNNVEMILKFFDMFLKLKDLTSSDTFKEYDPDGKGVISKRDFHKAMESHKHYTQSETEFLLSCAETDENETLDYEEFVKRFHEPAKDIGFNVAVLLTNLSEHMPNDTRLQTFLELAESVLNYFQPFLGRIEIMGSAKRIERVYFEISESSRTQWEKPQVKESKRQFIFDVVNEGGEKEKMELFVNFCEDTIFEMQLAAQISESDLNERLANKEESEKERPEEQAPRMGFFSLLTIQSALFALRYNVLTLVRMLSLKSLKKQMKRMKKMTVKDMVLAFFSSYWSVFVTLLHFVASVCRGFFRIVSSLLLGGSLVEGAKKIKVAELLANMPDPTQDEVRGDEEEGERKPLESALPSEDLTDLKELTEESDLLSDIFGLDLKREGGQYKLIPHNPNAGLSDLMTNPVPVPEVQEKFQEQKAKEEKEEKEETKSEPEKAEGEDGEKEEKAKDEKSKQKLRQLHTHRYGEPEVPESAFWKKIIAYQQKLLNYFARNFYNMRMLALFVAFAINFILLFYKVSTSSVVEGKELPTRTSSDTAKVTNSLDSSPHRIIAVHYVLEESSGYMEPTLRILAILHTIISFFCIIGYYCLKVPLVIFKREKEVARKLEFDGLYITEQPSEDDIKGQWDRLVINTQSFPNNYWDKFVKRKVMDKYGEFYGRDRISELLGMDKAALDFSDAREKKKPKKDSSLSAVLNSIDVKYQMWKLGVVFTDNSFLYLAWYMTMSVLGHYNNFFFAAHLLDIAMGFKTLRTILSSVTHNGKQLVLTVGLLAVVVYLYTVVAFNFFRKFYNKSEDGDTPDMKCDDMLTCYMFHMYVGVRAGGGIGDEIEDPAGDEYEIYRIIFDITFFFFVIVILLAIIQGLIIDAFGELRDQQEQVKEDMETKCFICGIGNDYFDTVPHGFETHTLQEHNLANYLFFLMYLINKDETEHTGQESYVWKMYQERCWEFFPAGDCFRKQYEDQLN
Target sequence in this assay (Q9Z2I2 whole entry partner): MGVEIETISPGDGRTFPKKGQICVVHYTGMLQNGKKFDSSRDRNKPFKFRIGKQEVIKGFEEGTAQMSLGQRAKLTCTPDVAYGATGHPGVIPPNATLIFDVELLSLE

[5] = system: mouse model of HF (myocardial infarction, MI); assay: novel object recognition test (hippocampal-dependent short-term memory); type: in vivo; conditions: MI mice, treated; MI 15%±4%, SHAM 48%±5%
Description: One-way analysis of variance (ANOVA) was used to compare the difference between the six groups in FIGS. 2B, 2C, 2E and 2F. Tukey's test was used for multiple comparisons; two-way ANOVA was used in FIG. 2D. […] All statistical tests were two sided with the data derived from biologically independent samples.
Next, a novel object recognition test was used to evaluate hippocampal-dependent short-term memory. (see Liu, X. et al. Role of leaky neuronal ryanodine receptors in stress-induced cognitive dysfunction. Cell 150, 1055-1067 (2012); and Bevins, R. A. & Besheer, J. Object recognition in rats and mice: a one-trial non-matching-to-sample learning task to study ‘recognition memory’. Nat. Protoc. 1, 1306-1311 (2006)).

healthy individuals = conditions: sustaining cognitive performance over time; cited from earlier work
[6] = system: amyloid and Tau pathology; conditions: Alzheimer's transgenic mice; cited from earlier work
RyR2 [7] = biological target: T2, RyR2; assay: caffeine-induced Ca2+ release in primary hippocampal neurons; type: cell-based; parameters: representative images of 14-d cultured hippocampal neurons stimulated with 10 mM caffeine; endogenous in cells; host or cells: primary hippocampal neurons, 14 d in culture; conditions: 10 mM caffeine; neurons treated with isoproterenol plus compound
Protocol: FIG. 5A presents representative images of 14-d cultured hippocampal neurons stimulated with 10 mM caffeine. For each condition, the Ca^2+ levels are shown at baseline, during stimulation and at recovery. […] Individual values are shown with the mean±s.e.m. […] Scale bar, 10 μm. A reduction in caffeine-induced Ca^2+ release indicates a Ca^2+ depleted ER due to persistent RyR2-mediated Ca^2+ leak. Data are derived from biologically independent samples. All statistical tests were two sided.
To determine whether the activation of the adrenergic pathway indeed causes neuronal RyR2-mediated ER Ca^2+ leak, caffeine (10 mM), a well characterized RyR agonist, was used to assess RyR2 function specifically in hippocampal neurons without interference of other cell types such as glial cells or astrocytes.

T1 sequence (E9Q401 whole entry): as the sequence (E9Q401 whole entry) above
T1 sequence (Q9Z2I2 whole entry partner): as the sequence (Q9Z2I2 whole entry partner) above

SMILES	spatial learning [1]	motor and cognitive function ([2]; rat model of germinal matrix hemorrhage)	germinal matrix hemorrhage ([2]; rat model)	RyR2 mean closed time (hippocampal RyR2)	RyR2 mean open time (hippocampal RyR2)	changes in AMPK, GSK3B, CaMKII, Tau phosphorylation, p25, BACE1 and βCTF [3]	ER Ca2+ leak (RyR2 [4])	discrimination index [5]	RyR2 open probability (Po) (hippocampal RyR2; 150 nM Ca2+ cis, MI 0.17%±0.04%)	effects on cognition (healthy individuals)	amyloid and Tau pathology [6]	prevention of the small caffeine-induced Ca2+ release of isoproterenol-treated neurons (RyR2 [7])
Fc1ccc(Cl)cc1-c1nc(Nc2ccncc2)c2nccnc2n1 [SD-208]	improved	partial recovery	inhibit germinal matrix hemorrhage	increased	decreased	prevented/attenuated	reduced	35%±6%				
CC(C)NCC(O)COc1cccc2ccccc12 (stereo not drawn) [propranolol]				increased	decreased	prevented/attenuated			0.018%±0.020%	beneficial effects	reduced	prevented
